The structures appear in SMILES notation. Activity calls are given as the source filed them. No cut-off for these calls is given here.

Test [1] concerns THP-1. Kind of test: Antiinflammatory activity in PMA-differentiated human THP-1 monocytes assessed as decrease in IL-1beta production at 10 uM incubated for 24 hrs in the presence of N-(adamantan-1-yl)-4-(pentylamino)-[1,1'-biphenyl]-3-carboxamide by ELISA coupled qRT-PCR analysis. In kind it is functional, cell-based.
In test [2] the test system is THP-1. Kind of test: Antiinflammatory activity in PMA-differentiated human THP-1 macrophages assessed as decrease in IL-1beta production at 1 to 10 uM incubated for 24 hrs in the presence of JTE907 by ELISA coupled qRT-PCR analysis. The settings on record: dose 1-10 µM. It is filed as functional, cell-based. Background: An ELISA detects its analyte on a solid surface through an enzyme-linked reagent.

Test [3] deals with THP-1. Kind of test: Antiinflammatory activity in PMA-differentiated human THP-1 macrophages assessed as reduction in IL-1beta production at 1 to 10 uM incubated for 24 hrs by ELISA coupled qRT-PCR analysis relative to control. It is filed as functional. The conditions noted are these: dose 1-10 µM. Details: scale not given: the % may be the effect or the level left.
Test [4] has as its system THP-1. Kind of test: Antiinflammatory activity in LPS-activated PMA-differentiated human THP-1 macrophages assessed as decrease in IL-6 production at 1 to 10 uM incubated for 24 hrs in the presence of JTE907 by ELISA coupled qRT-PCR analysis. The conditions noted are these: dose 1-10 µM. In kind it is functional, cell-based.

With `O=C(NC1CCCCC1)c1cn(CCN2CCOCC2)c2cc(Cl)ccc2c1=O`, the outcome in the test on THP-1 [1] was inactive.

Take `CCCCCNc1ccccc1C(=O)NC12CC3CC(CC(C3)C1)C2`: the result in the test on THP-1 [2] and with THP-1 [4] was inactive. The Activity in the test on THP-1 [3] came to 50%.

(Values after ChEMBL document CHEMBL5321210, “N-adamantyl-anthranil amide derivatives: New selective ligands for the cannabinoid receptor subtype 2 (CB2R)” (Eur J Med Chem, 2023).)
